One compound from patent publication US20130245064A1, “NOVEL NEUROTRYPSIN INHIBITORS” (priority 2010, published 2013) can be followed below.

Read-outs that look alike come from different tables or passages of the source. Bounds are passed on as bounds.

The target of one series is T1, Plasmin (Homo sapiens, UniProt P00747).
T1 construct: purchased American diagnostic
Put plainly: Determination of IC50 for various proteases: plasmin. The class given is biochemical. Conditions: plasmin 8 nM, substrate S-2288 0.5 mM; Mean ± SD. As for the experimental part:
(§1) A 6 mM solution of the test compound in DMSO was prepared. In a V-bottom micro plate the 6 mM compound solution was diluted 6 times in DMSO to obtain a concentration row with the following concentrations: 6 mM, 1.8 mM, 540 μM, 162 μM, 48.8 μM, 14.4 μM, and 4 μM. From this DMSO master plate 1:20 dilutions in 10 mM MOPS pH 8.3 were prepared to obtain solutions of 300, 90, 27, 8.1, 2.44, 0.72 and 0.22 μM in MOPS buffer and 5% DMSO.
(§2) 100 μl of this solution were pipetted into a flat bottom 96 well microplate and placed into a Tecan infinite 200 plate reader. Before measurement, 50 μl of protease solution and, subsequently 50 μl substrate solution were added by the machine. The liberation of free para nitroanilide was detected at 405 nm. The protease solution was freshly prepared by diluting to the desired concentration from a stock solution in 60 mM MOPS; 600 mM NaCl; 20 mM CaCl2; 10% DMSO; 0.4% PEG 6000 pH 8.3. The substrate solution was prepared by dissolving the solid substrate in an adequate amount of water to get the desired concentrations. The used protease and substrate solutions are given below:
(§3) All enzymes except trypsin were from human origin (American diagnostic). Trypsin was hog trypsin (Sigma Aldrich). Substrates were purchased from Chromogenix. […]

Another series deals with T2, human neurotrypsin (Homo sapiens, UniProt P56730).
T2 sequence (P56730 21-875): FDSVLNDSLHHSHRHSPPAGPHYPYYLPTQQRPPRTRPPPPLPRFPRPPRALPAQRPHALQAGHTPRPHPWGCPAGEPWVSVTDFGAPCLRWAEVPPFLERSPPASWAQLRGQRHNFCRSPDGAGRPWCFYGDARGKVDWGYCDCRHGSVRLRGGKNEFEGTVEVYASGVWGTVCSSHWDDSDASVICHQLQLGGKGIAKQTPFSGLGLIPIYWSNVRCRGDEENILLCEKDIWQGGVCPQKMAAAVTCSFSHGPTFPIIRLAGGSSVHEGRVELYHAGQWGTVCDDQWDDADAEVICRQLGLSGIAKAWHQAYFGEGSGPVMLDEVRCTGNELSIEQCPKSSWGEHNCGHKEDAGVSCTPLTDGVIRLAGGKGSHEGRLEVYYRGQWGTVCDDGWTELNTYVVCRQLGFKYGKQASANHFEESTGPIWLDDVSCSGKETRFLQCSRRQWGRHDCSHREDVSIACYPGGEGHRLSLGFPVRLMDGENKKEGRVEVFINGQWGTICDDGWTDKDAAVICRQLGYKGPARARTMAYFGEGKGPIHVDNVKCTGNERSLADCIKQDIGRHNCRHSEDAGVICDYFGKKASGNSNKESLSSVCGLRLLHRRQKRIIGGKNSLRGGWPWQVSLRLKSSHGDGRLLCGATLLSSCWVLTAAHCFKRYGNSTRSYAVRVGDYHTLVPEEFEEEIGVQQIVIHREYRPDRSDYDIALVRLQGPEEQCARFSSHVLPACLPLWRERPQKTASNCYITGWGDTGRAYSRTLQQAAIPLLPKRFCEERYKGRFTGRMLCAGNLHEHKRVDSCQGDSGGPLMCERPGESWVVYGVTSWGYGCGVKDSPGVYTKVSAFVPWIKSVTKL
Put plainly: Determination of IC50 for human neurotrypsin. The class given is biochemical. How it is done: Determination of IC50 for Human Neurotrypsin
Assessment of the potency of compounds of examples 1-14 in inhibiting the enzymatic activity of human neurotrypsin was performed according to the method described in patent application […]

The target of the next series is T3, Factor Xa (Homo sapiens, UniProt P00742).
T3 construct: purchased American diagnostic
Put plainly: Determination of IC50 for various proteases: Factor Xa. Type of series: biochemical. The conditions noted are these: Factor Xa 5 nM, substrate S-2288 0.5 mM; Mean ± SD. How it is done:
as §1, §2, §3

Series [1] is described as follows: Effect of compound on body weight in mice. The conditions noted are these: 25 mg/kg, three subcutaneous injections. Type of series: in vivo, C57/BL6 mice. As for the experimental part:
Adult (P50) C57/BL6 mice from Charles River were used for the experiments. All animal experiments are performed in accordance with international guidelines for proper conduct of animal experiment under jurisdiction of the Swiss law (Permit number ZH-18/2008). For every mouse in the experiment the well-being during the interventions is documented in a score sheet.
The mice are housed under optimal hygienic conditions (OHB) with controlled air-conditioning and lighting (temperature: 20-24° C., humidity: 55-65%, day/night cycle: 12 h/12 h, lights on 7 a.m.). Individually ventilated cages of type II, L (530 cm^2 floor space) with standard litter are used. A maximum of 6 mice is kept in each cage. Mice are fed with standard rodent chow (Extrudat, KLIBA NAFAG) ad libitum and have free access to drinking water. Animal colony is managed and maintained at BioSupport, Schlieren.
Three adult mice were treated with 2.5 ml/kg of a 10 mg/ml solution of the compound of Example 1 in 100% DMSO. This corresponds to a dose of 25 mg/kg active ingredient. As vehicle control, 3 mice were treated with 2.5 ml/kg of 100% DMSO. Each mouse received three subcutaneous injections. Between dose 1 and dose 2 there were 8 h, between dose 2 and dose 3 16 h. 5 h after the last injection the mice were euthanatized with CO2. […]

The term IC50 denotes the concentration that gives 50% inhibition. Usually melting point stands for the temperature, or range, at which the solid turns liquid.

T1 sequence (P00747 581-810 limits assumed): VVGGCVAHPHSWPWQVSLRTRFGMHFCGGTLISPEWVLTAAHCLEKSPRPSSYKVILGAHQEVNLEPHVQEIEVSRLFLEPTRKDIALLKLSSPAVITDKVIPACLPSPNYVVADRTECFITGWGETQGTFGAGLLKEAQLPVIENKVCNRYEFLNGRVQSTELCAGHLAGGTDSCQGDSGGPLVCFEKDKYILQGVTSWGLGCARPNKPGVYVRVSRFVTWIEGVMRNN
T1 sequence (P00747 97-580 partner limits assumed): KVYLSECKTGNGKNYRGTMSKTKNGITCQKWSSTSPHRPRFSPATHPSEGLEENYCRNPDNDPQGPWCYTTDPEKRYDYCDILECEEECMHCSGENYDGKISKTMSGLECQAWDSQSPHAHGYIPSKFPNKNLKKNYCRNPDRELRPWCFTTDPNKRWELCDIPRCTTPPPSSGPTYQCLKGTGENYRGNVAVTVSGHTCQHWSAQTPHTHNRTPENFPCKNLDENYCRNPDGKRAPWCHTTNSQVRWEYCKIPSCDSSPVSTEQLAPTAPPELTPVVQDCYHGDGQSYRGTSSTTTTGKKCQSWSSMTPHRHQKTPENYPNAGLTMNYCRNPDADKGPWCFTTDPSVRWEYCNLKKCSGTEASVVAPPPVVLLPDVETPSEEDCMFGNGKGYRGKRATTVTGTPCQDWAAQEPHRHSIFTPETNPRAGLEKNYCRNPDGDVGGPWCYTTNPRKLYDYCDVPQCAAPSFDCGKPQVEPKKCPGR
T3 sequence (P00742 235-488 limits assumed): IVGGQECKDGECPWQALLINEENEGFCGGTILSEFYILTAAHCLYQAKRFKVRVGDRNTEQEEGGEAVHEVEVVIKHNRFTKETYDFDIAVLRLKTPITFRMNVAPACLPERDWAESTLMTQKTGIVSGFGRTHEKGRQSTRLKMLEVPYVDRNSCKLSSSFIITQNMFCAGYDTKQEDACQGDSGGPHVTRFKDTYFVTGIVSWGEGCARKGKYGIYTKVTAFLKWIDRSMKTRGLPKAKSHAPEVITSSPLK
T3 sequence (P00742 41-179 partner limits assumed): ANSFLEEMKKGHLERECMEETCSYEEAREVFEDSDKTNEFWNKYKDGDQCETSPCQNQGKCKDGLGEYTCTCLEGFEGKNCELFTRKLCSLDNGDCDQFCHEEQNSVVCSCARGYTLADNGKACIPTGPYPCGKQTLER

On to `O=C(Nc1ccc(C(=O)Nc2ccc(Cl)cc2)c(O)c1)c1ccc(-c2nc3cc(Cl)c(Cl)cc3[nH]2)cc1` [Example 1, N-(4-Chlorophenyl)-4-(4-(5,6-dichloro-1H-benzo[d]imidazol-2-yl)benzamido)-2-hydroxybenzamide], for which the melting point is over 220 °C. In addition, on Plasmin, the IC50 was over 150000 nM. For the same compound, the IC50 at human neurotrypsin (Mean ± SD, read-out: IC50 Neurotrypsin) stood at 470 ± 150 nM. Besides, the IC50 at human neurotrypsin (table of all 14 examples, read-out: Neurotrypsin IC50) turned out to be 400 nM. The compound further came in with an IC50 at Factor Xa of 84800 ± 46400 nM. The “Weight loss compared to the vehicle control” value in series [1] is “did not produce any increase in weight loss”.
